Among the test systems are U251 CNS; HL-60(TB) leukemia; UACC-257 melanoma; NCI-H23 lung; UO-31 renal; K-562 leukemia; SK-MEL-2 melanoma; CAKI-1 renal; IGROV1 ovarian; MDA-MB-435.
Common to all, as to test: NCI tumour cell line growth inhibition, 48 h

Molecules are shown by their SMILES.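 Interpolation was linear, between the two tested concentrations surrounding the appropriate level; five concentrations were tested over 48 hours in 96-well plates. At the GI50, growth is halved. TGI is the concentration that stops growth completely.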 Some results are limits rather than exact numbers.

For `CC1(C)CC(c2c[nH]c3ccccc23)=CC2=Nc3ccccc3C21O` (stereo not drawn), the TGI in the assay with U251 CNS, in the assay on HL-60(TB) leukemia, in the assay with UACC-257 melanoma, in the assay on NCI-H23 lung, in the assay with UO-31 renal and in the assay with K-562 leukemia was over 100 µM throughout. The TGI in the assay on SK-MEL-2 melanoma, with CAKI-1 renal and with IGROV1 ovarian was over 100 µM in each case.
For `C[C@@]1(O)CC[C@]2(C)C3CCCC3[C@H]12` (stereo partly drawn), the TGI in the assay with U251 CNS, with HL-60(TB) leukemia, in the assay with UACC-257 melanoma, in the assay on NCI-H23 lung, with UO-31 renal and with K-562 leukemia was over 100 µM throughout. For the same compound, the TGI in the assay on SK-MEL-2 melanoma, in the assay with CAKI-1 renal and in the assay on IGROV1 ovarian was over 100 µM each time.
On to `CN(C)CC1CCCC/C1=N/O` (stereo not drawn), for which the TGI in the assay with U251 CNS, in the assay with HL-60(TB) leukemia, in the assay with UACC-257 melanoma, with NCI-H23 lung, in the assay on UO-31 renal and in the assay on K-562 leukemia was over 100 µM throughout. The TGI in the assay on SK-MEL-2 melanoma, in the assay with CAKI-1 renal and in the assay with IGROV1 ovarian was over 100 µM each time.
For the compound `N#CC(C(=O)CCC(=O)Nc1ccc(Cl)c(Cl)c1)c1ccccc1` (stereo not drawn), the TGI with U251 CNS, in the assay on HL-60(TB) leukemia, in the assay on UACC-257 melanoma, in the assay on NCI-H23 lung, in the assay on UO-31 renal and in the assay on K-562 leukemia was over 100 µM throughout. Also, the TGI with SK-MEL-2 melanoma, with CAKI-1 renal and in the assay with IGROV1 ovarian was over 100 µM throughout.
`CCCC/C=C/C=C/C=C/CCCCCCCC(=O)OCC(COC(=O)CCCCCCC/C=C/C1C=CC(CCCC)C(C(=O)O)C1C(=O)O)OC(=O)CCCCCCC/C=C/C=C/C=C/CCCC` (stereo not drawn) (tested in a mixture with another compound): the TGI with HL-60(TB) leukemia is 41.1 µM; with UACC-257 melanoma, 34.9 µM; in the assay on NCI-H23 lung, 40.3 µM; in the assay on UO-31 renal it was 34.7 µM; with K-562 leukemia, 44.2 µM; with SK-MEL-2 melanoma, 29.5 µM. The TGI is 76.1 µM in the assay with CAKI-1 renal and 37.8 µM in the assay on IGROV1 ovarian.
As for `O=C(NC1C=CCC2C(=O)N(c3ccccc3)C(=O)C12)OCc1ccccc1` (stereo not drawn), the TGI in the assay on U251 CNS, with HL-60(TB) leukemia, with UACC-257 melanoma, in the assay on NCI-H23 lung, in the assay with UO-31 renal and in the assay on K-562 leukemia was over 100 µM in each case. Besides, the TGI in the assay with SK-MEL-2 melanoma, with CAKI-1 renal and with IGROV1 ovarian was over 100 µM in each case.
With `CN(C)C(=S)/N=c1\ssc(=S)n1C1CCCCC1`, the TGI is 37.9 µM in the assay with U251 CNS; 32.5 µM with HL-60(TB) leukemia; 64.9 µM with UACC-257 melanoma; over 100 µM in the assay with NCI-H23 lung; over 100 µM with UO-31 renal; 52.6 µM with K-562 leukemia. In addition, the TGI with SK-MEL-2 melanoma is over 100 µM; with CAKI-1 renal, 90.6 µM; in the assay on IGROV1 ovarian it was over 100 µM.
As to `CN1C(=O)C(=O)N2c3ccc(Cl)cc3C3(c4ccccc4)N=CC12O3` (stereo not drawn), the TGI in the assay with U251 CNS worked out at 30.1 µM; in the assay on HL-60(TB) leukemia, 6.26 µM; with UACC-257 melanoma, 19 µM; in the assay with NCI-H23 lung, 15.5 µM; in the assay with UO-31 renal it was 18.1 µM; with K-562 leukemia, 19.9 µM. For the same compound, the TGI came out at 30.5 µM with SK-MEL-2 melanoma, 42.7 µM with CAKI-1 renal and 40 µM in the assay with IGROV1 ovarian.
As for `[O-][Cl+3]([O-])([O-])[O-].[O]=[Ru]=[O].c1ccc(-c2ccccn2)nc1.c1ccc(-c2ccccn2)nc1`, the GI50 in the assay with U251 CNS, with HL-60(TB) leukemia, in the assay with UACC-257 melanoma, with NCI-H23 lung, with UO-31 renal and in the assay on K-562 leukemia was over 100 µM each time. Also, the values for the GI50 with SK-MEL-2 melanoma, in the assay with CAKI-1 renal and in the assay with IGROV1 ovarian were over 100 µM, over 100 µM and 58.8 µM, respectively. Further, the TGI in the assay on U251 CNS, with HL-60(TB) leukemia, in the assay on UACC-257 melanoma, in the assay on NCI-H23 lung, in the assay with UO-31 renal and in the assay on K-562 leukemia was over 100 µM each time. Moreover, the TGI with SK-MEL-2 melanoma, in the assay on CAKI-1 renal and with IGROV1 ovarian was over 100 µM each time.
Turning to `O=C(O)CSc1n[nH]c(-c2ccccc2O)n1`, the TGI in the assay with U251 CNS, with HL-60(TB) leukemia, in the assay on UACC-257 melanoma, in the assay on NCI-H23 lung, with UO-31 renal and in the assay with K-562 leukemia was over 100 µM each time. For the same compound, the TGI in the assay with SK-MEL-2 melanoma, in the assay with CAKI-1 renal and in the assay on IGROV1 ovarian was over 100 µM throughout.
As to `CN(C)C=Nc1nc(=O)n(C2CCC(CO)O2)cc1F` (stereo not drawn), the TGI with U251 CNS, with HL-60(TB) leukemia, in the assay with UACC-257 melanoma, in the assay with NCI-H23 lung, in the assay on UO-31 renal and in the assay with K-562 leukemia was over 100 µM in each case. Also, the TGI with SK-MEL-2 melanoma and in the assay with CAKI-1 renal was over 100 µM throughout.
For the compound `Cn1cc(-c2cc3c(N4CCN(c5ncc([C@@](C)(N)c6ccc(F)cc6)cn5)CC4)ncnn3c2)cn1`, the GI50 was 3.67 µM with U251 CNS; 3.8 µM in the assay with HL-60(TB) leukemia; 5 µM in the assay with UACC-257 melanoma; 3.56 µM with MDA-MB-435; 1.84 µM in the assay on UO-31 renal; 2.49 µM in the assay on K-562 leukemia. Also, the GI50 is 25.4 µM with SK-MEL-2 melanoma, 2.63 µM with CAKI-1 renal and 2.7 µM in the assay on IGROV1 ovarian. The TGI in the assay with U251 CNS, in the assay on HL-60(TB) leukemia, with UACC-257 melanoma, with MDA-MB-435, in the assay with UO-31 renal and in the assay on K-562 leukemia was over 100 µM throughout. The TGI with SK-MEL-2 melanoma, in the assay on CAKI-1 renal and in the assay on IGROV1 ovarian was over 100 µM each time.
In the case of `Cc1nc(-c2nc(C)c(C(=O)NNC(=O)C[n+]3ccccc3)s2)sc1C(=O)NNC(=O)C[n+]1ccccc1`, the TGI in the assay on U251 CNS is over 100 µM; in the assay with HL-60(TB) leukemia it was over 100 µM; in the assay on UACC-257 melanoma it was over 100 µM; in the assay with NCI-H23 lung it was over 100 µM; in the assay with UO-31 renal, 80.5 µM; in the assay with K-562 leukemia, over 100 µM. The figures for the TGI in the assay on SK-MEL-2 melanoma, in the assay on CAKI-1 renal and with IGROV1 ovarian were over 100 µM, 85.1 µM and over 100 µM, respectively.
